Results published in US20210122763A1, “OGA INHIBITOR COMPOUNDS” (Janssen Pharmaceutica NV, priority 2018, published 2021).

Target: T1, OGA (Mus musculus, UniProt Q9EQQ9)
T1 construct: Brains were immediately removed from the skull; from tissue; host or cells: mouse brain (forebrain area of sagittal sections)
T1 sequence (Q9EQQ9 1-916): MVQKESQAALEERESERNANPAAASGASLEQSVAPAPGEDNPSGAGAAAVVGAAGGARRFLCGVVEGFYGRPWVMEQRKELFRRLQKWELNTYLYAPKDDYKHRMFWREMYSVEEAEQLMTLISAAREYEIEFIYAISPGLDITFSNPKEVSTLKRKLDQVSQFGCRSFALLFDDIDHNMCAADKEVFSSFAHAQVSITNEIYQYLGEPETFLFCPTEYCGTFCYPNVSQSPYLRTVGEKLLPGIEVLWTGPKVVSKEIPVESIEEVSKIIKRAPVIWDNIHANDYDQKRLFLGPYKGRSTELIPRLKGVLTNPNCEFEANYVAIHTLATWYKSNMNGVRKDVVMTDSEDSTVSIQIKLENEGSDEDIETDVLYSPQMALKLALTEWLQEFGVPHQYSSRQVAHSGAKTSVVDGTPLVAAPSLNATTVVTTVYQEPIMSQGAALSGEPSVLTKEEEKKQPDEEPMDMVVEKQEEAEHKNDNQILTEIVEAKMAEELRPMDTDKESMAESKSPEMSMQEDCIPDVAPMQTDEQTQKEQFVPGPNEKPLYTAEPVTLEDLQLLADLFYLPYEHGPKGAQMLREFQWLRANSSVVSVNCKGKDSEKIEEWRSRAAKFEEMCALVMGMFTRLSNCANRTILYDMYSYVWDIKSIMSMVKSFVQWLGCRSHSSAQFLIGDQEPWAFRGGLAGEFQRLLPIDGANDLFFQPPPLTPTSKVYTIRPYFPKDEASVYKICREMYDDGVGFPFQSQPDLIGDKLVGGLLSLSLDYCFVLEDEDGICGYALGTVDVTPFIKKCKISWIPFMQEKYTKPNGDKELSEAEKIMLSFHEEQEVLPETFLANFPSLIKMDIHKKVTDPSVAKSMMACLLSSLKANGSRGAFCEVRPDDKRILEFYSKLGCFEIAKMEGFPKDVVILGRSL
Test: Ex vivo OGA occupancy assay using [3H]-ligand
Type: in vivo
Settings: male NMRI or C57Bl6j mice, p.o., 24 h after administration, forebrain area of brain sections, 3 nM [3H]-ligand, normalised to vehicle; for receptor occupancy at 25 mg/kg: mouse, po, read-out: Occupancy (% +/− sd)
Protocol: 3) Ex Vivo OGA Occupancy Assay Using [3H]-Ligand Drug Treatment and Tissue Preparation
Male NMRI or C57Bl6j mice were treated by oral (p.o.) administration of vehicle or compound. Animals were sacrificed 24 hours after administration. Brains were immediately removed from the skull, hemispheres were separated and the right hemisphere, for ex vivo OGA occupancy assay, was rapidly frozen in dry-ice cooled 2-methylbutane (−40° C.). […] sagittal sections were cut using a Leica CM 3050 cryostat-microtome (Leica, Belgium), thaw-mounted on microscope slides (SuperFrost Plus Slides, Thermo Fisher Scientific) and stored at −20° C. until use. After thawing, sections were dried under a cold stream of air. The sections were not washed prior to incubation. The 10 minutes incubation with 3 nM [^3H]-ligand was rigorously controlled. All brain sections (from compound-treated and vehicle-treated animals) were incubated in parallel. After incubation, the excess of [^3H]-ligand was washed off in ice-cold buffer (PBS 1× and 1% BSA) 2 times 10 minutes, followed by a quick dip in distilled water. The sections were then dried under a stream of cold air.
QUANTITATIVE AUTORADIOGRAPHY AND DATA ANALYSIS Radioactivity in the forebrain area of brain slices was measured using a P-imager with M3 vision analysis software (Biospace Lab, Paris). Specific binding was calculated as the difference between total binding and non-specific binding measured in Thiamet-G (10 μM) treated sections. Specific binding in sections from drug treated animals was normalised to binding in sections from vehicle treated mice to calculate percentage of OGA occupancy by the drug.

In the case of `Cc1cc(OC2CCN([C@H](C)c3nc4c(cc3F)OCCO4)CC2)cc(C)n1` (single isomer, unassigned) [Compound 148], the “Occupancy (% +/− sd)” value (25 mg/kg) is reported as 77.67 +/− 10.5% and the receptor occupancy at 25 mg/kg is reported as 84.3%.
`Cc1cc(OC2CCN([C@H](C)c3nc4c(cc3F)CCO4)CC2)cc(C)n1` (single isomer, unassigned) [Compound 144] gave a receptor occupancy at 25 mg/kg of 94.7%.
With `Cc1ncc(OC2CCN(C(C)c3nc4c(cc3F)CCO4)CC2)cn1` (centres unmarked) [Compound 95] the receptor occupancy at 25 mg/kg was 20%.
For `Cc1cc(OC2CCN([C@@H](C)c3nc4nc(C)sc4cc3F)CC2)cc(C)n1` (single isomer, unassigned) [Compound 83], the receptor occupancy at 25 mg/kg was 97%.
